The source of these data is ChEMBL document CHEMBL4371032, “Synthesis and evaluation of 2,5-diamino and 2,5-dianilinomethyl pyridine analogues as potential CXCR4 antagonists” (2019).

Active and inactive are the calls of the source. The rule behind the calls is not given here.

Test [1] concerns the target C-X-C chemokine receptor type 4 (Homo sapiens) (UniProt P61073). Kind of test: Inhibition of biotinylated TN14003 binding to CXCR4 in human MDA-MB-231 cells preincubated for 10 mins followed by biotinylated-TN14003 addition measured after 30 mins by streptavidin-rhodamine staining based fluorescence microscopic analysis. The class given is cell-based.
Another test has as its system Mus musculus. Description: Antiinflammatory activity in C57Bl/6J mouse assessed as inhibition of carrageenan-induced paw edema at 10 mg/kg, ip treated for 2 days measured 2 hrs post last dose by caliper method relative to control. Format: functional. (In general: Carrageenan injected into the paw causes an acute inflammation.)
Test [2] deals with C-X-C chemokine receptor type 4 (Homo sapiens) (UniProt P61073). Description: Inhibition of CXCR4-mediated chemotaxis in human MDA-MB-231 cells assessed as reduction in CXCL12alpha-induced cell invasion at 100 nM after 22 hrs by hematoxylin/eosin dye-based matrigel assay relative to control.
Chain of C-X-C chemokine receptor type 4 (Homo sapiens) (P61073 whole entry): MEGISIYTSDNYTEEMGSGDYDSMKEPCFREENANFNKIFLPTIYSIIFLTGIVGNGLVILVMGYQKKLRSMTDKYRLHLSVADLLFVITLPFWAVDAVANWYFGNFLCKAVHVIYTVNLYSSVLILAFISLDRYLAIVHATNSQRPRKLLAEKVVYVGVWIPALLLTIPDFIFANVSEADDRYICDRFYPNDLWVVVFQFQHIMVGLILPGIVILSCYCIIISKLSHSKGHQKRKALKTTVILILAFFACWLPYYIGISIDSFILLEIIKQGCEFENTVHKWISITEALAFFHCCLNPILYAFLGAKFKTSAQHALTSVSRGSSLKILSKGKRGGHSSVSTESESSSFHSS

`O=[N+]([O-])c1ccccc1NCc1ccc(CNc2ccccc2[N+](=O)[O-])nc1`: in test [1], the EC stood at 1000 nM.

In test [1], `Fc1ccc(CNc2ccc(NCc3ccc(F)cc3)nc2)cc1` displayed an EC of 1000 nM.

By inhibition in vivo is commonly meant the relative decrease from the control value, in per cent. As a reminder, the inhibition is the drop in the measured response relative to a control, in per cent. The compound `Clc1ccc(CNc2ccc(NCc3ccc(Cl)cc3)nc2)cc1` displayed an EC in test [1] of 10 nM. The inhibition in vivo at 10 mg/kg in the test on Mus musculus is 8%. The inhibition in test [2] worked out at 83.7%.

In the case of `COc1ccccc1NCc1cccc(CNc2ccccc2OC)n1`, the inhibition in test [2] was less than 1%.

In test [1], `Fc1ccccc1NCc1ccc(CNc2ccccc2F)nc1` registered an EC of 1000 nM.

Regarding `O=[N+]([O-])c1cccc(CNc2ccc(NCc3cccc([N+](=O)[O-])c3)nc2)c1`, the EC in test [1] stood at 1000 nM.

`Cc1ccccc1NCc1ccc(CNc2ccccc2C)nc1`: in test [1], the EC turned out to be 1000 nM.

For `Brc1ccc(CNc2ccc(NCc3ccc(Br)cc3)nc2)cc1`, the EC in test [1] worked out at 1000 nM.

`Fc1cccc(CNc2ccc(NCc3cccc(F)c3)nc2)c1`: the EC in test [1] is 100 nM. Further, in test [2], the inhibition came out at 4.8%.

Take `COc1ccccc1CNc1ccc(NCc2ccccc2OC)nc1`: the EC in test [1] is greater than 1000 nM.

For the compound `Cc1ccccc1CNc1ccc(NCc2ccccc2C)nc1`, the EC in test [1] turned out to be 100 nM. In the test with Mus musculus, the inhibition in vivo at 10 mg/kg amounted to 3%. Besides, in test [2], the inhibition stood at 82.4%.

As to `O=[N+]([O-])c1ccccc1CNc1ccc(NCc2ccccc2[N+](=O)[O-])nc1`, the EC in test [1] is 1000 nM.

In test [1], `COc1ccc(NCc2ccc(CNc3ccc(OC)cc3)nc2)cc1` registered an EC of 1000 nM.

In turn, `Fc1cccc(NCc2ccc(CNc3cccc(F)c3)nc2)c1` had an EC in test [1] of 100 nM. Also, the inhibition in vivo at 10 mg/kg with Mus musculus is 12%. Moreover, the inhibition in test [2] stood at 82.4%.

In the case of `Cc1cccc(NCc2ccc(CNc3cccc(C)c3)nc2)c1`, the inhibition entry in the test with Mus musculus was “inactive”. In addition, the inhibition in test [2] amounted to 99%.

As for `c1cc(CN2CCCNCCNCCCNCC2)ccc1CN1CCCNCCNCCCNCC1`, the inhibition entry with Mus musculus was “inactive”. The inhibition in test [2] stood at 62%.

As to `O=[N+]([O-])c1ccc(CNc2ccc(NCc3ccc([N+](=O)[O-])cc3)nc2)cc1`, the EC in test [1] is 1000 nM.

`COc1cccc(NCc2ccc(CNc3cccc(OC)c3)nc2)c1` returned an EC in test [1] of 100 nM. For the same compound, in the test with Mus musculus, the inhibition result was “inactive”. Moreover, the inhibition in test [2] was 76.8%.

In test [1], `O=[N+]([O-])c1cccc(NCc2ccc(CNc3cccc([N+](=O)[O-])c3)nc2)c1` registered an EC of 100 nM. In test [2], the inhibition was found to be 73.4%.

`CCc1ccc(CNc2ccc(NCc3ccc(CC)cc3)nc2)cc1` registered an EC in test [1] greater than 1000 nM.

On to `Clc1ccc(NCc2ccc(CNc3ccc(Cl)cc3)nc2)cc1`, for which the EC in test [1] was 1000 nM.

With `c1ccc(NCc2ccc(CNc3ccccn3)cc2)nc1`, the inhibition in vivo at 10 mg/kg in the test on Mus musculus worked out at 40%.

Compound `Brc1ccc(NCc2ccc(CNc3ccc(Br)cc3)nc2)cc1` registered an EC in test [1] of 1000 nM.

Regarding `Fc1ccc(NCc2ccc(CNc3ccc(F)cc3)nc2)cc1`, the EC in test [1] amounted to 1000 nM.

As for `Cc1cccc(CNc2ccc(NCc3cccc(C)c3)nc2)c1`, in test [1], the EC came out at 100 nM. In addition, in test [2], the inhibition came out at 50.4%.

As to `c1ccc(NCc2ccc(CNc3ccccc3)nc2)cc1`, the EC in test [1] was 1000 nM.

Regarding `COc1ccccc1NCc1ccc(CNc2ccccc2OC)nc1`, the inhibition in vivo at 10 mg/kg in the test with Mus musculus amounted to 11%. Further, in test [2], the inhibition turned out to be 84.1%.

For the compound `CCc1ccc(NCc2ccc(CNc3ccc(CC)cc3)nc2)cc1`, the EC in test [1] amounted to 1000 nM.

For `COc1cccc(CNc2ccc(NCc3cccc(OC)c3)nc2)c1`, the EC in test [1] is greater than 1000 nM.

Compound `c1ccc(CNc2ccc(NCc3ccccc3)nc2)cc1` registered an EC in test [1] of 1000 nM.

`Fc1ccccc1CNc1ccc(NCc2ccccc2F)nc1`: the EC in test [1] came to 100 nM. Besides, the inhibition in test [2] turned out to be 53.3%.

In test [1], `Cc1ccc(CNc2ccc(NCc3ccc(C)cc3)nc2)cc1` came in with an EC of 10 nM. Moreover, in test [2], the inhibition turned out to be 35.7%.

In test [1], `Cc1ccc(NCc2ccc(CNc3ccc(C)cc3)nc2)cc1` came in with an EC of 100 nM. The inhibition result in the test on Mus musculus is “inactive”. Moreover, the inhibition in test [2] was 85.1%.

In test [1], `O=[N+]([O-])c1ccc(NCc2ccc(CNc3ccc([N+](=O)[O-])cc3)nc2)cc1` came in with an EC of 1 nM. In the test on Mus musculus, the inhibition in vivo at 10 mg/kg stood at 13%. Moreover, the inhibition in test [2] amounted to 80.3%.
